Key:
[1] = CIPN-reversal study: body weight, tolerability, mortality; type: in vivo
Procedure: Rats were housed 2-3 per cage under similar environmental conditions as nude mice in the interference study.
(§1) Wistar female rats (n=52) (Envigo, Correzzano, Italy) at 10-11 weeks of age were utilized. The study was divided into 2 phases of 4 weeks each. […] Body weight was measured periodically during phase 1 from baseline (day 1) to day 28. At baseline and conclusion of phase 1 (day 28), nerve conduction velocity (NCV) was performed on caudal and sciatic nerves and Dynamic Aesthesiometer Test (DAT) measured mechanical threshold (MT) of the hind paw. […] Body weight was measured periodically from baseline (day 28) to day 56 (termination). NCV and MT were measured in all 4 groups at baseline and on day 35 and 56. […] At termination, sciatic nerves were obtained for β-tubulin polymerization and skin samples were procured for intraepidermal nerve fiber (IENF) density and histopathology.

[2] = test system: caudal nerves (BTZ-induced CIPN); assay: CIPN-reversal study: caudal nerve conduction velocity; type: in vivo, Wistar rat
Procedure: as §1
NCV (meters/second) was obtained from caudal and sciatic nerves with an electromyography tool (Myto 2, ABN Neuro, Firenze, Italy). Caudal NCV was measured by placement of recording needle electrodes distally in the tail with stimulating needle electrodes 5 cm and 10 cm proximal to recording point. Peak latencies of potentials recorded at the 2 sites after nerve stimulation were determined and NCV was calculated. Sciatic NCV was determined by placement of needle recording electrodes near ankle bone and stimulating electrodes close to thigh. Peak latencies were recorded similar to caudal nerve and NCV was calculated. NCV was performed under standard conditions in a temperature-controlled facility (22±2° C.) and rats were under isoflurane anesthesia with monitoring of vital signs.

[3] = test system: hind paw mechanical allodynia (BTZ-induced CIPN); assay: CIPN-reversal study: Dynamic Aesthesiometer Test, mechanical threshold; type: in vivo, Wistar rat
Procedure: as §1
MT was assessed with the DAT device (Model 37450, Ugo Basile Biological Instruments, Comerio, Italy). After acclimation, a servo-controlled pointed metallic filament (0.5 mm diameter) was placed on plantar surface of the hind paw and exerted a progressive punctate pressure up to 50 grams within 20 seconds. The pressure elicited a voluntary hind paw withdrawal response that was recorded and represented MT index. MT was collected alternatively on each side every 2 minutes on 3 occasions to yield a mean value. Mean MT values represented maximum pressure (grams) tolerated by each rat. Exposure of each animal to mechanical stimulus was limited to 30 seconds.

β-tubulin = β-tubulin polymerization assay in sciatic nerve; type: in vivo, Wistar rat; conditions: week 8
Procedure: as §1
At day 56, animals were euthanized by CO2 inhalation and tissue samples were procured from 4 rats per group. Right sciatic nerve was frozen in liquid nitrogen for β-tubulin polymerization assay and plantar glabrous skin samples were collected for IENF density.
Protein extracts from sciatic nerves were processed similar to the proteasome assay except for lysis buffer that contained freshly added protease and […] (10 mM sodium orthovanadate, 4 mM phenylmethylsulfonyl fluoride, 1% aprotinin and 20 mM sodium pyrophosphate). Protein extracts were centrifuged (14000 rpm for 10 minutes at 4° C.) to separate soluble (S) free tubulin fractions from polymerized (P) fractions. Supernatants were collected and pellets of polymerized tubulin were resuspended by sonication for 20 seconds in a volume of lysis buffer supplemented with 0.5% sodium deoxycholate (equivalent to S fraction). Protein aliquots (10 μg) were placed onto 13% SDS-PAGE and, after electrophoresis, were transferred to nitrocellulose filters. Immunoblotting analysis was performed using mouse anti-β-tubulin antibody. After incubation with primary antibody, membrane was washed and incubated with horseradish peroxidase conjugated to […] (Perkin Elmer Italia SPA, Monza, Italy). The ECL chemiluminescence system (Amersham GE Healthcare Europe GmbH, Milano, Italy) was used for detection. Band intensity was quantified with Gel Logic 100 Image System (Eastman Kodak, Rochester, N.Y., USA). Final mean values were obtained from triplicate experiments and data were expressed as percentage of P/P+S in treated rats compared to controls.

[4] = In vivo anti-tumor (interference) study: body weight; design: species or system athymic nude mouse; conditions: 1 mg/kg BTZ in combination with 30 mg/kg CX-8998 orally once daily, 28 days
Description: Care and husbandry of mice complied with USDA (U.S. Department of Agriculture) Animal Welfare Act and START IACUC (Institutional Animal Care and Use Committee) regulations. The protocol was reviewed and approved by START IACUC. Mice were individually housed in Sealsafe® Plus ventilated cages (Techniplast, West Chester, Pa., USA) and fed with Teklad 2919 (Envigo, Somerset, N.J., USA), irradiated, 19% protein, 9% fat and 4% fiber mouse chow. Mice were maintained under controlled environmental conditions (22+/−2° C. temperature, 55+/−10% relative humidity and 12-hour light/dark cycle (7 a.m.-7 p.m.).
South Texas Accelerated Research Therapeutics (START) (San Antonio, Tex., USA) conducted this study. […] The 30 mg/kg dose was tolerated in preclinical safety studies and anticipated to result in exposures in excess of the therapeutic range for 28 days. Body weight, TV and animal observations were collected twice per week to day 18 (termination) for vehicle control mice and twice per week to day 28 (termination) for each of the other 3 groups. Mean±SD body weight and TV were analyzed with Kruskal-Wallis and Dunn multiple comparison test at day 18 and with Mann Whitney test at day 28 with statistical significance at p<0.05.

[5] = BTZ vs BTZ+ CX-8998 3 mg/kg, P > 0.05 ns
[6] = BTZ vs BTZ+ CX-8998 10 mg/kg, P > 0.05 ns
[7] = BTZ vs BTZ+ CX-8998 30 mg/kg, P > 0.05 ns
[8] = BTZ+ CX-8998 3 mg/kg vs BTZ+ CX-8998 10 mg/kg, P > 0.05 ns
[9] = BTZ+ CX-8998 3 mg/kg vs BTZ+ CX-8998 30 mg/kg, P < 0.05 *
[10] = BTZ+ CX-8998 3 mg/kg vs BTZ+ CX-8998 30 mg/kg, P > 0.05 ns
[11] = BTZ+ CX-8998 10 mg/kg vs BTZ+ CX-8998 30 mg/kg, P > 0.05 ns
[12] = CTRL vs BTZ+ CX-8998 3 mg/kg, P > 0.05 ns
[13] = CTRL vs BTZ+ CX-8998 10 mg/kg, P > 0.05 ns
[14] = CTRL vs BTZ+ CX-8998 30 mg/kg, P > 0.05 ns
[15] = CTRL vs BTZ+ CX-8998 10 mg/kg, P < 0.05 *

SMILES: CC(C)c1ccc(CC(=O)N[C@H](C)c2ccc(OCC(F)(F)F)cn2)cc1 [CX-8998, (R)-2-(4-Isopropylphenyl)-N-(1-(5-(2,2,2-Trifluoroethoxy)pyridin-2-yl)ethyl)acetamide]
- tolerability ([1]; BTZ in combination with CX-8998): well tolerated
- mortality (animals) ([1]; one each in combinations of BTZ with 3 mg/kg and 10 mg/kg CX-8998): two
- body weight change ([1]; weeks 5 and 8, BTZ in combination with 3, 10 and 30 mg/kg CX-8998): not significantly different
- NCV OF CAUDAL NERVE (5 weeks), Difference in rank sum (Dunn's Multiple Comparison Test) [2, 5]: −11.21
- NCV OF CAUDAL NERVE (8 weeks), Difference in rank sum (Dunn's Multiple Comparison Test) [2, 5]: −11.55
- NCV OF CAUDAL NERVE (8 weeks), Difference in rank sum (Dunn's Multiple Comparison Test) ([2]; BTZ vs BTZ+ CX-8998 10 mg/kg, P < 0.01 **): −22.36
- NCV OF CAUDAL NERVE (5 weeks), Difference in rank sum (Dunn's Multiple Comparison Test) [2, 6]: −4.625
- NCV OF CAUDAL NERVE (8 weeks), Difference in rank sum (Dunn's Multiple Comparison Test) ([2]; BTZ vs BTZ+ CX-8998 30 mg/kg, P < 0.001 ***): −30.42
- NCV OF CAUDAL NERVE (5 weeks), Difference in rank sum (Dunn's Multiple Comparison Test) [2, 7]: −11.04
- NCV OF CAUDAL NERVE (5 weeks), Difference in rank sum (Dunn's Multiple Comparison Test) [2, 8]: 6.583
- NCV OF CAUDAL NERVE (8 weeks), Difference in rank sum (Dunn's Multiple Comparison Test) [2, 8]: −10.82
- NCV OF CAUDAL NERVE (8 weeks), Difference in rank sum (Dunn's Multiple Comparison Test) [2, 9]: −18.87
- NCV OF CAUDAL NERVE (5 weeks), Difference in rank sum (Dunn's Multiple Comparison Test) [2, 10]: 0.1667
- NCV OF CAUDAL NERVE (5 weeks), Difference in rank sum (Dunn's Multiple Comparison Test) [2, 11]: −6.417
- NCV OF CAUDAL NERVE (8 weeks), Difference in rank sum (Dunn's Multiple Comparison Test) [2, 11]: −8.053
- NCV OF CAUDAL NERVE (8 weeks), Difference in rank sum (Dunn's Multiple Comparison Test) ([2]; CTRL vs BTZ+ CX-8998 3 mg/kg, P < 0.01 **): 25.45
- NCV OF CAUDAL NERVE (5 weeks), Difference in rank sum (Dunn's Multiple Comparison Test) [2, 12]: 4.542
- NCV OF CAUDAL NERVE (5 weeks), Difference in rank sum (Dunn's Multiple Comparison Test) [2, 13]: 11.13
- NCV OF CAUDAL NERVE (8 weeks), Difference in rank sum (Dunn's Multiple Comparison Test) [2, 13]: 14.64
- NCV OF CAUDAL NERVE (5 weeks), Difference in rank sum (Dunn's Multiple Comparison Test) [2, 14]: 4.708
- NCV OF CAUDAL NERVE (8 weeks), Difference in rank sum (Dunn's Multiple Comparison Test) [2, 14]: 6.583
- DYNAMIC TEST 5 WEEKS, Difference in rank sum (Dunn's Multiple Comparison Test) [3, 5]: −13.99
- DYNAMIC TEST 8 WEEKS, Difference in rank sum (Dunn's Multiple Comparison Test) [3, 5]: −15.63
- DYNAMIC TEST 5 WEEKS, Difference in rank sum (Dunn's Multiple Comparison Test) [3, 6]: −0.7411
- DYNAMIC TEST 8 WEEKS, Difference in rank sum (Dunn's Multiple Comparison Test) [3, 6]: −6.500
- DYNAMIC TEST 5 WEEKS, Difference in rank sum (Dunn's Multiple Comparison Test) [3, 7]: −6.679
- DYNAMIC TEST 8 WEEKS, Difference in rank sum (Dunn's Multiple Comparison Test) [3, 7]: −9.688
- DYNAMIC TEST 8 WEEKS, Difference in rank sum (Dunn's Multiple Comparison Test) [3, 8]: 9.125
- DYNAMIC TEST 5 WEEKS, Difference in rank sum (Dunn's Multiple Comparison Test) [3, 10]: 7.313
- DYNAMIC TEST 8 WEEKS, Difference in rank sum (Dunn's Multiple Comparison Test) [3, 10]: 5.938
- DYNAMIC TEST 5 WEEKS, Difference in rank sum (Dunn's Multiple Comparison Test) [3, 11]: −5.938
- DYNAMIC TEST 8 WEEKS, Difference in rank sum (Dunn's Multiple Comparison Test) [3, 11]: −3.188
- DYNAMIC TEST 5 WEEKS, Difference in rank sum (Dunn's Multiple Comparison Test) [3, 12]: 3.250
- DYNAMIC TEST 8 WEEKS, Difference in rank sum (Dunn's Multiple Comparison Test) [3, 12]: 7.563
- DYNAMIC TEST 5 WEEKS, Difference in rank sum (Dunn's Multiple Comparison Test) [3, 15]: 16.50
- DYNAMIC TEST 8 WEEKS, Difference in rank sum (Dunn's Multiple Comparison Test) [3, 15]: 16.69
- DYNAMIC TEST 5 WEEKS, Difference in rank sum (Dunn's Multiple Comparison Test) [3, 14]: 10.56
- DYNAMIC TEST 8 WEEKS, Difference in rank sum (Dunn's Multiple Comparison Test) [3, 14]: 13.50
- TUBULIN POLYMERIZATION, Difference in rank sum (Dunn's Multiple Comparison Test) (β-tubulin; [5]): −4.000
- TUBULIN POLYMERIZATION, Difference in rank sum (Dunn's Multiple Comparison Test) (β-tubulin; [6]): −4.000
- TUBULIN POLYMERIZATION, Difference in rank sum (Dunn's Multiple Comparison Test) (β-tubulin; [7]): 15.00
- TUBULIN POLYMERIZATION, Difference in rank sum (Dunn's Multiple Comparison Test) (β-tubulin; [8]): 0.000
- TUBULIN POLYMERIZATION, Difference in rank sum (Dunn's Multiple Comparison Test) (β-tubulin; [9]): 19.00
- TUBULIN POLYMERIZATION, Difference in rank sum (Dunn's Multiple Comparison Test) (β-tubulin; BTZ+ CX-8998 10 mg/kg vs BTZ+ CX-8998 30 mg/kg, P < 0.05 *): 19.00
- TUBULIN POLYMERIZATION, Difference in rank sum (Dunn's Multiple Comparison Test) (β-tubulin; CTRL vs BTZ+ CX-8998 3 mg/kg, P < 0.05 *): −15.64
- TUBULIN POLYMERIZATION, Difference in rank sum (Dunn's Multiple Comparison Test) (β-tubulin; [15]): −15.46
- TUBULIN POLYMERIZATION, Difference in rank sum (Dunn's Multiple Comparison Test) (β-tubulin; [14]): 0.2576
- body weight [4]: transient body weight loss during first two weeks of treatment and no weight gain at day 18 and 28
